From the supplement of paper PMC12490022
± gives the uncertainty stated by the source.

What follows are compounds tested on ozone (assay: apparent second-order rate constant for reaction with ozone (kapp,O3) (M-1 s-1); higher = faster oxidation by ozone). Settings: pH 7; temperature: 22 C; OH radical scavenger: tBuOH 80 mM; phosphate 4 mM.
Procedure: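 Apparent second-order rate constants for reaction with ozone at pH 7 were determined by multicompound competition kinetics. Mixtures of targets and competitors (10 ug/L each) were ozonated in 4 mM phosphate buffer, pH 7, with 80 mM tBuOH as OH-radical scavenger, at 22 ± 1 °C. Peak-area abatement was measured by HPLC-HRMS/MS and k was derived from ln-ln slopes against competitors with known k (R2 > 0.9, >= 10 points, slope 0.1-10). Experiments were run in triplicate on 3 days; the value is the mean over valid competitors ± SD.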

First: CNCCCC(C#N)(c1ccc(OC)c(OC)c1)C(C)C (configuration not stated)
Second: COCCCOc1cc(CC(CC(N)C(O)CC(C(=O)NCC(C)(C)C(N)=O)C(C)C)C(C)C)ccc1OC (configuration not stated) [Aliskiren]
The “apparent second-order rate constant” value of the first is lower: 2300 ± 200 for the first, 22000 ± 5000 for the second.

Compared with `Cn1c(=O)[nH]c2[nH]c(=O)n(C)c2c1=O` [1,7-Dimethyluric acid], `Cc1c(NC=O)c(=O)n(-c2ccccc2)n1C` [4-Formylaminoantipyrine] is lower in “apparent second-order rate constant” value: 6.6e+07 ± 1.4e+07 for the first, 61000 ± 14000 for the second.

Compared with `Clc1cccc(N2CCNCC2)c1` [1-(3-Chlorophenyl)piperazine], `Clc1ccc(C(c2ccccc2)N2CCNCC2)cc1` (configuration not stated) [1-(4-Chlorobenzhydryl)piperazine] is lower in “apparent second-order rate constant” value: 2.1e+06 ± 400000 for the first, 7700 ± 630 for the second.

`CC(C(=O)O)c1ccc(C(O)C(C)C)cc1` (configuration not stated) [1-Hydroxyibuprofen] and `CC(Cc1ccc(C(C)C(=O)O)cc1)C(=O)O` (configuration not stated) [Carboxyibuprofen] are within error of each other in “apparent second-order rate constant” value: 14.7 ± 1.6 for the first, 11.8 ± 1.3 for the second.

First: CN1CCN2c3ncccc3Cc3ccccc3C2C1=O (configuration not stated) [1-Oxo-mirtazapine]
Second: CN1CCN2c3ncc(O)cc3Cc3ccccc3C2C1 (configuration not stated) [8-Hydroxymirtazapine]
The “apparent second-order rate constant” value of the first is lower: 64000 ± 14000 for the first, 5.4e+07 ± 1.2e+07 for the second.

Compared with `O=c1ccn(C2OC(CO)C(O)C2(F)F)c(=O)[nH]1` (configuration not stated) [2'-Deoxy-2',2'-difluorouridine], `CC1CC2C3CCC4=CC(=O)C=CC4(C)C3(F)C(O)CC2(C)C1(O)C(=O)CO` (configuration not stated) [Betamethasone] is lower in “apparent second-order rate constant” value: 562 ± 27 for the first, 35.8 ± 1.8 for the second.

Compared with `CC=C1N(C)C(C)CC1(c1ccccc1)c1ccccc1` (configuration not stated) [2-Ethylidene-1,5-dimethyl-3,3-diphenylpyrrolidine (EDDP)], `O=C(c1ccccc1)c1ccccc1` [Benzophenone] is lower in “apparent second-order rate constant” value: 99000 ± 18000 for the first, < 0.401 for the second.

Compared with `Cc1cc(=O)[nH]c2c1NC(=O)c1cccnc1N2C1CC1` [2-Hydroxynevirapine], `O=C1Nc2c(CO)ccnc2N(C2CC2)c2ncccc21` [12-Hydroxynevirapine] is lower in “apparent second-order rate constant” value: 1.56e+07 ± 1.2e+06 for the first, 392 ± 21 for the second.

Compared with `CC(CN(C)C)CN1c2ccccc2CCc2cc(O)ccc21` (configuration not stated) [2-Hydroxytrimipramine], `O=C(O)C(c1ccccc1Cl)N1CCc2sccc2C1` (configuration not stated) [Clopidogrel carboxylic acid] is lower in “apparent second-order rate constant” value: 8.7e+07 ± 1.9e+07 for the first, 175000 ± 14000 for the second.

First: Nc1c(I)c(N)c(I)c(C(=O)O)c1I [3,5-Diamino-2,4,6-triiodobenzoic acid]
Second: N[C@@H](Cc1cc(I)c(O)c(I)c1)C(=O)O [3,5-Diiodo-L-tyrosine]
The “apparent second-order rate constant” value of the first is higher: 1.02e+07 ± 700000 for the first, 2.87e+06 ± 220000 for the second.

Going from `COc1cc(Cc2cnc(N)nc2N)cc(O)c1OC` [3-Desmethyltrimethoprim] to `COc1cc(Cc2cnc(N)nc2N)cc(OC)c1O` [4-Desmethyltrimethoprim], the “apparent second-order rate constant” value rises from 1.17e+07 ± 900000 to 3.6e+07 ± 86.

Going from `Oc1cnc2c(c1)CCc1cc(Cl)ccc1C2=C1CCNCC1` [3-Hydroxydesloratadine] to `O=C(O)Cc1ccccc1Nc1c(Cl)cc(O)cc1Cl` [4'-Hydroxydiclofenac], the “apparent second-order rate constant” value falls from 6.3e+07 ± 1.4e+07 to 6.95 ± 0.38.

`Cc1c(CO)cccc1Nc1ccccc1C(=O)O` [3-Hydroxymethylmefenamic acid] and `O=C(O)Cc1cc(O)ccc1Nc1c(Cl)cccc1Cl` [5-Hydroxydiclofenac] are within error of each other in “apparent second-order rate constant” value: 9.3e+07 ± 2e+07 for the first, 6.4e+07 ± 1.4e+07 for the second.

Compared with `O=C(O)CCNC(=O)c1ccc(Cl)cc1` [3-[(4-Chlorobenzoyl)amino]propanoic acid], `O=C(c1ccccc1)c1ccc(Cl)cc1` [4-Chlorobenzophenone] is higher in “apparent second-order rate constant” value: 0.194 ± 0.008 for the first, 0.58 ± 0.04 for the second.

First: COc1c(CSc2nc3ccc(OC(F)F)cc3[nH]2)[nH]ccc1=O [4'-O-Demethyl-pantoprazole sulfide]
Second: COc1ccc2c(c1)c(CC(=O)OCC(=O)O)c(C)n2C(=O)c1ccc(Cl)cc1 [Acemethacin]
The “apparent second-order rate constant” value of the first is lower: 21000 ± 2000 for the first, 1.04e+06 ± 86000 for the second.

Compared with `Nc1cc(Cl)c(S(N)(=O)=O)cc1S(N)(=O)=O` [4-Amino-6-chlorobenzene-1,3-disulfonamide], `NS(=O)(=O)c1cc2c(cc1Cl)NC=NS2(=O)=O` [Chlorothiazide] is lower in “apparent second-order rate constant” value: 90.5 ± 4.7 for the first, 1.57 ± 0.17 for the second.

First: Cc1c(N)c(=O)n(-c2ccccc2)n1C [4-Aminoantipyrine]
Second: CC(N)Cc1ccccc1 (configuration not stated) [Amphetamine]
The “apparent second-order rate constant” value of the first is higher: 294000 ± 26000 for the first, 34 ± 4 for the second.

First: CC(N)Cc1ccc(O)cc1 (configuration not stated) [4-Hydroxyamphetamine]
Second: Oc1ccc(C(F)(F)F)cc1 [4-Trifluoromethylphenol]
The “apparent second-order rate constant” value of the first is higher: 2.48e+06 ± 220000 for the first, 1.43e+06 ± 150000 for the second.

Compared with `Nc1[nH]c(=O)ncc1F` [5-Fluorocytosine], `O=c1ncnc2[nH][nH]cc1-2` [Allopurinol] is lower in “apparent second-order rate constant” value: 24300 ± 2500 for the first, 3.9 ± 0.4 for the second.

Going from `Nc1ccc(S(=O)(=O)Nc2ccc(O)cn2)cc1` [5-Hydroxysulfapyridine] to `NC(=O)N1c2ccccc2C2OC2c2ccccc21` (configuration not stated) [Carbamazepine-10,11-epoxide], the “apparent second-order rate constant” value falls from 1.6e+08 ± 3e+07 to < 0.401.

First: CC(=O)OC1C=CC2C3Cc4ccc(O)c5c4C2(CCN3C)C1O5 (configuration not stated) [6-Acetylmorphine]
Second: CN1C2CCC1C(C(=O)O)C(OC(=O)c1ccccc1)C2 (configuration not stated) [Benzoylecgonine]
The “apparent second-order rate constant” value of the first is higher: 1.29e+07 ± 1.1e+06 for the first, 11.3 ± 1.2 for the second.

`C/C(=C\Cc1c(O)c(C)c2c(c1O)C(=O)OC2)CCC(=O)O` [6-O-Desmethyl mycophenolic acid] and `CCOC(=O)C1=C(COCCN)NC(C)=C(C(=O)OC)C1c1ccccc1Cl` (configuration not stated) [Amlodipine] are within error of each other in “apparent second-order rate constant” value: 9.2e+07 ± 2e+07 for the first, 9.9e+07 ± 2.2e+07 for the second.

First: Nc1nc(NC2CC2)c2ncn(C3C=CC(CO)C3)c2n1 (configuration not stated) [Abacavir]
Second: CCN1CCCC1CNC(=O)c1cc(S(=O)(=O)CC)c(N)cc1OC (configuration not stated) [Amisulpride]
The “apparent second-order rate constant” value of the first is higher: 8.8e+06 ± 600000 for the first, 18000 ± 1600 for the second.

Compared with `CC[N+]1([O-])CCCC1CNC(=O)c1cc(S(=O)(=O)CC)c(N)cc1OC` (configuration not stated) [Amisulpride-N-oxide], `CC(=O)OCC(=O)[C@@]1(O)[C@@H](C)C[C@H]2[C@@H]3CCC4=CC(=O)C=C[C@]4(C)[C@@]3(F)[C@@H](O)C[C@@]21C` [Betamethasone-21-acetate] is lower in “apparent second-order rate constant” value: 1190 ± 100 for the first, 24.4 ± 1.3 for the second.

Compared with `CC1(C)SC(CNC(=O)C(N)c2ccc(O)cc2)NC1C(=O)O` (configuration not stated) [Amoxicillin impurity E], `CC1(C)SC2C(NC(=O)C(N)c3ccc(O)cc3)C(=O)N2C1C(=O)O` (configuration not stated) [Amoxicillin] is lower in “apparent second-order rate constant” value: 9e+06 ± 1.9e+06 for the first, 2.2e+06 ± 190000 for the second.

First: O=C1C=CC(=C2NC=CNC2=O)C=C1 [Amoxicillin impurity F]
Second: CC(=O)Oc1ccc(C(c2ccc(OC(C)=O)cc2)c2ccccn2)cc1 [Bisacodyl]
The “apparent second-order rate constant” value of the first is higher: 3.75e+06 ± 540000 for the first, 2.6 ± 0.3 for the second.

First: COC(=O)C1=CCC2CCC1N2C (configuration not stated) [Anhydroecgonine methyl ester]
Second: CCCC1CC(C(=O)NC(C(C)Cl)C2OC(SC)C(O)C(O)C2O)N(C)C1 (configuration not stated) [Clindamycin]
The “apparent second-order rate constant” value of the first is lower: 44000 ± 10000 for the first, 749000 ± 65000 for the second.

Going from `CC(C)NCC(O)COc1ccc(CC(=O)O)cc1` (configuration not stated) [Atenolol acid] to `CC(C)NCC(O)COc1ccc(CC(N)=O)cc1` (configuration not stated) [Atenolol], the “apparent second-order rate constant” value rises from 845 ± 57 to 1580 ± 72.

Compared with `CC(C)c1c(C(=O)Nc2ccccc2)c(-c2ccccc2)c(-c2ccc(F)cc2)n1CCC(O)CC(O)CC(=O)O` (configuration not stated) [Atorvastatin], `O=C(O)COCCN1CCN(C(c2ccccc2)c2ccc(Cl)cc2)CC1` (configuration not stated) [Cetirizine] is lower in “apparent second-order rate constant” value: 1.5e+08 ± 3e+07 for the first, 359000 ± 31000 for the second.

First: CC[C@H]1OC(=O)[C@H](C)[C@@H](O[C@H]2C[C@@](C)(OC)[C@@H](O)[C@H](C)O2)[C@H](C)[C@@H](O[C@@H]2O[C@H](C)C[C@H]([N+](C)(C)[O-])[C@H]2O)[C@](C)(O)C[C@@H](C)CN(C)[C@H](C)[C@@H](O)[C@]1(C)O [Azithromycin-N-oxide]
Second: CCC1OC(=O)C(C)C(OC2CC(C)(OC)C(O)C(C)O2)C(C)C(OC2OC(C)CC(N(C)C)C2O)C(C)(O)CC(C)CN(C)C(C)C(O)C1(C)O (configuration not stated) [Azithromycin]
The “apparent second-order rate constant” value of the first is lower: 1150 ± 74 for the first, 72000 ± 17000 for the second.

Going from `CC(NC(C)(C)C)C(=O)c1cccc(Cl)c1` (configuration not stated) [Bupropion] to `CC(C)(Oc1ccc(Cl)cc1)C(=O)O` [Clofibric acid], the “apparent second-order rate constant” value falls from 315 ± 15 to 23 ± 3.

Going from `O=C(O)COCC[N+]1([O-])CCN(C(c2ccccc2)c2ccc(Cl)cc2)CC1` (configuration not stated) [Cetirizine-N-oxide] to `CN(C)CCCC1(c2ccc(F)cc2)OCc2cc(C#N)ccc21` (configuration not stated) [Citalopram], the “apparent second-order rate constant” value rises from 5670 ± 460 to 12600 ± 1100.

Compared with `CC[C@H]1OC(=O)[C@H](C)[C@@H](O[C@H]2C[C@@](C)(OC)[C@@H](O)[C@H](C)O2)[C@H](C)[C@@H](O[C@@H]2O[C@H](C)C[C@H]([N+](C)(C)[O-])[C@H]2O)[C@](C)(OC)C[C@@H](C)C(=O)[C@H](C)[C@@H](O)[C@]1(C)O` [Clarithromycin-N-oxide], `CCC1OC(=O)C(C)C(OC2CC(C)(OC)C(O)C(C)O2)C(C)C(OC2OC(C)CC(N(C)C)C2O)C(C)(OC)CC(C)C(=O)C(C)C(O)C1(C)O` (configuration not stated) [Clarithromycin] is higher in “apparent second-order rate constant” value: < 0.401 for the first, 65000 ± 15000 for the second.

For `CCCC1CC(C(=O)NC(C(C)Cl)C2OC(S(C)=O)C(O)C(O)C2O)N(C)C1` (configuration not stated) [Clindamycin-sulfoxide], the “apparent second-order rate constant” value was 336000 ± 30000.
